The NIST ThermoML archive (doi:10.1021/acs.jced.6b00269)
± gives the expanded uncertainty stated by the source.

Conditions: for viscosity / mass density: 101.33 kPa, Liquid; for viscosity: Cone and plate viscometry; for mass density: Vibrating tube method; for Glass transition temperature: DSC; for Normal melting temperature: Crystal, DTA

Row | SMILES | viscosity (278.15 K) [mPa·s] | viscosity (283.15 K) [mPa·s] | mass density (283.15 K) [kg/m3] | viscosity (288.15 K) [mPa·s] | mass density (288.15 K) [kg/m3] | viscosity (293.15 K) [mPa·s] | mass density (293.15 K) [kg/m3] | mass density (295.15 K) [kg/m3] | viscosity (298.15 K) [mPa·s] | mass density (298.15 K) [kg/m3] | viscosity (303.15 K) [mPa·s] | mass density (303.15 K) [kg/m3] | viscosity (308.15 K) [mPa·s] | mass density (308.15 K) [kg/m3] | viscosity (313.15 K) [mPa·s] | mass density (313.15 K) [kg/m3] | mass density (318.15 K) [kg/m3] | mass density (323.15 K) [kg/m3] | mass density (328.15 K) [kg/m3] | mass density (333.15 K) [kg/m3] | further results
1 | CCC[n+]1ccn(C)c1C.O=[N+]([O-])c1cn[n-]c1 [1,2-dimethyl-3-propylimidazolium 4-nitropyrazolide] | 9610 ± 1100 | 4500 ± 500 | 1193 ± 7.7 | 2270 ± 230 | 1189.4 ± 7.7 | 1240 ± 110 | 1185.6 ± 7.6 | 1184.3 ± 7.6 | 722 ± 61 | 1182.2 ± 7.6 | 447 ± 35 | 1178.9 ± 7.6 | 294 ± 22 | 1175.5 ± 7.5 | 200 ± 10 | 1172.2 ± 7.5 | 1168.9 ± 7.4 | 1165.7 ± 7.4 | 1162.5 ± 7.3 | 1159.3 ± 7.3 | viscosity (318.15 K): 143 ± 10 mPa·s; viscosity (323.15 K): 106 ± 7 mPa·s; viscosity (328.15 K): 81 ± 5 mPa·s; viscosity (333.15 K): 65 ± 4 mPa·s; viscosity (338.15 K): 53 ± 4 mPa·s; mass density (338.15 K): 1156.1 ± 7.3 kg/m3; mass density (343.15 K): 1152.8 ± 7.2 kg/m3; mass density (348.15 K): 1149.6 ± 7.2 kg/m3; mass density (353.15 K): 1146.4 ± 7.1 kg/m3; Glass transition temperature: -50 ± 2 °C
2 | CCC=Cn1cc[n+](C)c1C.O=[N+]([O-])c1cn[n-]c1 [1-but-1-enyl-2,3-dimethylimidazolium 4-nitropyrazolide] | 6650 ± 750 | 3260 ± 340 | 1191.5 ± 7.7 | 1720 ± 170 | 1187.7 ± 7.7 | 973 ± 86 | 1184.2 ± 7.6 | 1182.8 ± 7.6 | 590 ± 48 | 1180.8 ± 7.6 | 380 ± 29 | 1177.5 ± 7.5 | 255 ± 19 | 1174.1 ± 7.5 | 179 ± 13 | 1170.8 ± 7.5 | 1167.6 ± 7.4 | 1164.4 ± 7.4 | 1161.1 ± 7.3 | 1157.9 ± 7.3 | viscosity (318.15 K): 131 ± 9 mPa·s; viscosity (323.15 K): 99 ± 7 mPa·s; viscosity (328.15 K): 77 ± 5 mPa·s; viscosity (333.15 K): 62 ± 4 mPa·s; viscosity (338.15 K): 50 ± 3 mPa·s; mass density (338.15 K): 1154.7 ± 7.2 kg/m3; mass density (343.15 K): 1151.5 ± 7.2 kg/m3; mass density (348.15 K): 1148.3 ± 7.2 kg/m3; mass density (353.15 K): 1145.2 ± 7.1 kg/m3; Glass transition temperature: -53 ± 2 °C
3 | CCCC[n+]1cccn1C.O=S(=O)([N-]S(=O)(=O)C(F)(F)F)C(F)(F)F [1-butyl-2-methylpyrazolium bis(trifluoromethylsulfonyl)imide] | 214 ± 15 | 155 ± 11 | 1465.4 ± 12 | 116 ± 8 | 1460.7 ± 12 | 88 ± 6 | 1456 ± 12 | 1454.06 ± 12 | 70 ± 5 | 1451.2 ± 12 | 55 ± 4 | 1446.5 ± 11 | – | 1441.8 ± 11 | – | 1437.1 ± 11 | 1432.4 ± 11 | 1427.7 ± 11 | 1423 ± 11 | 1418.4 ± 11 | mass density (338.15 K): 1413.8 ± 11 kg/m3; mass density (343.15 K): 1409.1 ± 11 kg/m3; mass density (348.15 K): 1404.6 ± 11 kg/m3; mass density (353.15 K): 1400 ± 11 kg/m3; Glass transition temperature: -82 ± 2 °C
4 | CCCC[S+]1CCCCC1.O=S(=O)([N-]S(=O)(=O)C(F)(F)F)C(F)(F)F [1-butylthianium bis(trifluoromethylsulfonyl)imide] | 398 ± 30 | 279 ± 21 | – | 200 ± 10 | – | 148 ± 10 | – | – | 112 ± 8 | – | 88 ± 6 | – | 70 ± 5 | – | 57 ± 4 | – | – | – | – | – | Normal melting temperature: -10 ± 2 °C; Glass transition temperature: -82 ± 2 °C
5 | Cc1n(C2CCCC2)cc[n+]1C.O=[N+]([O-])c1cn[n-]c1 [1-cyclopentyl-2,3-dimethylimidazolium 4-nitropyrazolide] | – | – | – | – | – | – | – | – | – | – | – | – | – | – | – | – | – | – | – | – | Normal melting temperature: 92 ± 2 °C
6 | CCCCCCn1cc[n+](C)c1C.O=[N+]([O-])c1cn[n-]c1 [1-hexyl-2,3-dimethylimidazolium 4-nitropyrazolide] | 14600 ± 1800 | 6910 ± 800 | 1129.4 ± 6.9 | 3490 ± 370 | 1126 ± 6.9 | 1910 ± 180 | 1122.4 ± 6.8 | 1121 ± 6.8 | 1110 ± 100 | 1118.9 ± 6.8 | 691 ± 58 | 1115.7 ± 6.8 | 450 ± 35 | 1112.4 ± 6.7 | 303 ± 23 | 1109.2 ± 6.7 | 1106 ± 6.6 | 1102.8 ± 6.6 | 1099.7 ± 6.6 | 1096.6 ± 6.5 | viscosity (318.15 K): 213 ± 15 mPa·s; viscosity (323.15 K): 147 ± 10 mPa·s; viscosity (328.15 K): 112 ± 8 mPa·s; viscosity (333.15 K): 87 ± 6 mPa·s; viscosity (338.15 K): 69 ± 5 mPa·s; mass density (338.15 K): 1093.5 ± 6.5 kg/m3; viscosity (343.15 K): 56 ± 4 mPa·s; mass density (343.15 K): 1090.4 ± 6.4 kg/m3; mass density (348.15 K): 1087.4 ± 6.4 kg/m3; mass density (353.15 K): 1084.3 ± 6.4 kg/m3; Glass transition temperature: -47 ± 2 °C
7 | CCCCCCn1cc[n+](C)c1.N#Cc1ccc[n-]1 [1-hexyl-3-methylimidazolium 2-cyanopyrrolide] | 1540 ± 140 | 902 ± 78 | 1031 ± 5.7 | 553 ± 45 | 1027.9 ± 5.7 | 355 ± 27 | 1024.9 ± 5.7 | 1023.6 ± 5.7 | 239 ± 17 | 1021.8 ± 5.6 | 167 ± 12 | 1018.8 ± 5.6 | 122 ± 8 | 1015.8 ± 5.6 | 91 ± 6 | 1012.8 ± 5.5 | 1009.9 ± 5.5 | 1006.9 ± 5.5 | 1003.9 ± 5.4 | 1001 ± 5.4 | viscosity (318.15 K): 70 ± 5 mPa·s; viscosity (323.15 K): 55 ± 4 mPa·s; mass density (338.15 K): 998 ± 5.4 kg/m3; mass density (343.15 K): 995.1 ± 5.3 kg/m3; mass density (348.15 K): 992.1 ± 5.3 kg/m3; mass density (353.15 K): 989.1 ± 5.3 kg/m3; Glass transition temperature: -65 ± 2 °C
8 | CCCCCCn1cc[n+](C)c1.O=[N+]([O-])c1cn[n-]c1 [1-hexyl-3-methylimidazolium 4-nitropyrazolide] | 3310 ± 340 | 1810 ± 170 | 1133.6 ± 7 | 1040 ± 92 | 1130 ± 6.9 | 633 ± 52 | 1126.6 ± 6.9 | 1125.3 ± 6.9 | 407 ± 32 | 1123.3 ± 6.8 | 275 ± 20 | 1120 ± 6.8 | 192 ± 14 | 1116.6 ± 6.8 | 139 ± 10 | 1113.4 ± 6.7 | 1110.2 ± 6.7 | 1107 ± 6.6 | 1103.8 ± 6.6 | 1100.6 ± 6.6 | viscosity (318.15 K): 102 ± 7 mPa·s; viscosity (323.15 K): 79 ± 5 mPa·s; viscosity (328.15 K): 63 ± 4 mPa·s; viscosity (333.15 K): 51 ± 3 mPa·s; mass density (338.15 K): 1097.4 ± 6.5 kg/m3; mass density (343.15 K): 1094.2 ± 6.5 kg/m3; mass density (348.15 K): 1091.1 ± 6.5 kg/m3; mass density (353.15 K): 1087.9 ± 6.4 kg/m3; Normal melting temperature: 33 ± 2 °C; Glass transition temperature: -56 ± 2 °C
9 | CC(=O)[O-].CCCCCCn1cc[n+](C)c1 [3-hexyl-1-methylimidazolium acetate] | 12300 ± 1500 | 6460 ± 740 | 1025.7 ± 5.7 | 3550 ± 370 | 1022.7 ± 5.7 | 2060 ± 200 | 1019.6 ± 5.6 | 1018.4 ± 5.6 | 1270 ± 120 | 1016.6 ± 5.6 | 816 ± 69 | 1013.5 ± 5.5 | 537 ± 43 | 1010.4 ± 5.5 | 372 ± 28 | 1007.4 ± 5.5 | 1004.5 ± 5.4 | 1001.5 ± 5.4 | 998.5 ± 5.4 | 995.5 ± 5.3 | viscosity (318.15 K): 265 ± 19 mPa·s; viscosity (323.15 K): 194 ± 14 mPa·s; viscosity (328.15 K): 147 ± 10 mPa·s; viscosity (333.15 K): 113 ± 8 mPa·s; viscosity (338.15 K): 90 ± 6 mPa·s; mass density (338.15 K): 992.6 ± 5.3 kg/m3; mass density (343.15 K): 989.6 ± 5.3 kg/m3; mass density (348.15 K): 986.7 ± 5.3 kg/m3; mass density (353.15 K): 983.7 ± 5.2 kg/m3
